PMC8338929, “Acetylation turns leucine into a drug by membrane transporter switching” (Scientific Reports, 2021)

What was measured:
Human OAT1 (SLC22A6) = molecular target: T1, Human OAT1 (SLC22A6) (Homo sapiens, UniProt Q4U2R8); test: OAT1-mediated cellular uptake in overexpressing HEK-293 cells; type: cell-based
T1 construct: host or cells: HEK-293
T1 sequence (Q4U2R8 1-563): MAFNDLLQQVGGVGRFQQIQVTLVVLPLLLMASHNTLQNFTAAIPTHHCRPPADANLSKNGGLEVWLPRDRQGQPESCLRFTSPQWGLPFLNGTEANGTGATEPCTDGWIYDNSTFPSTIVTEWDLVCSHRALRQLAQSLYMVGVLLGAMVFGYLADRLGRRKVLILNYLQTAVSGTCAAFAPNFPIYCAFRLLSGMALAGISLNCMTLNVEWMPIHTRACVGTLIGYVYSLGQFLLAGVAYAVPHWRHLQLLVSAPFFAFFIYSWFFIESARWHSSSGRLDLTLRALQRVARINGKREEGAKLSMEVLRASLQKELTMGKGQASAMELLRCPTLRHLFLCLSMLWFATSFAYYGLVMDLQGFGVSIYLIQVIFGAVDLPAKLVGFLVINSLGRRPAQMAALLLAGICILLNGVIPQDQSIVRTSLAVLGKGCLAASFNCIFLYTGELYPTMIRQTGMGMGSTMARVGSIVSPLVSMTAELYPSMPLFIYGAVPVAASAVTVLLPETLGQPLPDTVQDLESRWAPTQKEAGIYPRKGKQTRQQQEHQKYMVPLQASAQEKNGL
Method: (§1) Cells were grown in DMEM (Gibco 4196, high glucose, without sodium pyruvate) supplemented with MEM non-essential amino acids and 10% fetal bovine serum. Cells were re-fed with fresh medium after attachment (4–6 h post-seeding). Cell were plated at a density of 4 × 10^5/well in 24-well plates coated with poly-D-lysine. Transporter assays were conducted in 400 µL of HBSS supplemented with 10 mM Hepes, pH 7.4
The known probe substrates used as positive controls were 3 μM chlorothiazide for OAT1, 2 μM estrone-3-sulfate for OAT3, 10 µM [^3H]gabapentin for LAT1, 50 µM [^3H]Gly-Sar for PepT1, 500 µM thiophene-2-glyoxylic acid for MCT1. The known inhibitors used as controls for each transporter were 100 μM diclofenac for OAT1 and OAT3, 10 µM JPH203 for LAT1 and 200 µM losartan for PepT1. All incubations were in triplicate and contained 1% (OAT1 and OAT3) or 0.5% DMSO (LAT, PepT1 and MCT1). The duration of uptake was 5 min for OAT1 and OAT3, 3 min for LAT1 and PepT1 and 1 min for MCT1. Assays were performed at 37 °C with no shaking, except MCT1 at room temperature. To determine uptake due to the overexpressed transporter per se, uptake was taken as the difference between accumulation between transfected and nontransfected cells in parallel experiments at the same concentration and time. To terminate uptake the plate was placed on ice and cells washed twice with ice-cold transport buffer. […]

Human OAT3 (SLC22A8) = molecular target: T2, Human OAT3 (SLC22A8) (Homo sapiens, UniProt Q8TCC7); test: Inhibition of OAT3 uptake of probe substrate estrone-3-sulfate in HEK-293 cells; type: cell-based; conditions: probe estrone-3-sulfate 2 µM; positive control diclofenac 100 µM
T2 construct: host or cells: HEK-293
T2 sequence (Q8TCC7 1-542): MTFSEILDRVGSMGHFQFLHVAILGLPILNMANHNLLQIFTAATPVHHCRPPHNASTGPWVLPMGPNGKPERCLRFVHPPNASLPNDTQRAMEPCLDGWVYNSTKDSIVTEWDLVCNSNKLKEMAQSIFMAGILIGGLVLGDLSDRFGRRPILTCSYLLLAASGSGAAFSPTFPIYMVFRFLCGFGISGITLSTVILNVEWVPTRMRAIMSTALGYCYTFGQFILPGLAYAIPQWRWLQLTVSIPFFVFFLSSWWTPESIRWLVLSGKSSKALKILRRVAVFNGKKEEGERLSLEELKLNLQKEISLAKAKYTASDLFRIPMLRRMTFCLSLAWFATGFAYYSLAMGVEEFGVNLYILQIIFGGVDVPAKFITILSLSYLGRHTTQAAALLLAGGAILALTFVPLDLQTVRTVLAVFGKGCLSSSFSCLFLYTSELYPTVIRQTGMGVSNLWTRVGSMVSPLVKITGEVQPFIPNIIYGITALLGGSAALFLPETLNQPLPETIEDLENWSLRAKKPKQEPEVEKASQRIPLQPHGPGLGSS
Method: as §1
The known probe substrates used as positive controls were 3 μM chlorothiazide for OAT1, 2 μM estrone-3-sulfate for OAT3, 10 µM [^3H]gabapentin for LAT1, 50 µM [^3H]Gly-Sar for PepT1, 500 µM thiophene-2-glyoxylic acid for MCT1. The known inhibitors used as controls for each transporter were 100 μM diclofenac for OAT1 and OAT3, 10 µM JPH203 for LAT1 and 200 µM losartan for PepT1. All incubations were in triplicate and contained 1% (OAT1 and OAT3) or 0.5% DMSO (LAT, PepT1 and MCT1). […]
[I] is the inhibitor concentration and IC50 is the inhibitor concentration where the remaining activity is at the midpoint between the Top and Bottom. […] In inhibition experiments, the IC50 is not equivalent to affinity because it is dependent on the concentrations of the substrate, the inhibitor and affinity; therefore, we assumed competitive inhibition, and calculated affinity of inhibition (Ki) with the Cheng-Prusoff equation[49].

CC(=O)N[C@@H](CC(C)C)C(=O)O [N-acetyl-L-leucine]
Vmax OAT1 uptake (Human OAT1 (SLC22A6); Michaelis-Menten fit): 173
substrate of OAT1 (uptake) (Human OAT1 (SLC22A6); pH 7.4, 5 min): substrate
IC50 (Human OAT3 (SLC22A8)): 700 µM
